Nine compounds from patent US5610174A, “Use of α1A -selective adrenoceptor agonists for the treatment of urinary incontinence” (priority 1995, dated 1997) can be followed below.

Read-outs that look alike come from different tables or passages of the source. Where only a bound is given, the exact number is not on record here.

In assay [1] the target is T1, human α1B adrenoceptor (Homo sapiens, UniProt P35368).
T1 construct: The entire coding region of the α1B receptor (1563 bp); expressed in transfected cells
T1 sequence (P35368 1-520): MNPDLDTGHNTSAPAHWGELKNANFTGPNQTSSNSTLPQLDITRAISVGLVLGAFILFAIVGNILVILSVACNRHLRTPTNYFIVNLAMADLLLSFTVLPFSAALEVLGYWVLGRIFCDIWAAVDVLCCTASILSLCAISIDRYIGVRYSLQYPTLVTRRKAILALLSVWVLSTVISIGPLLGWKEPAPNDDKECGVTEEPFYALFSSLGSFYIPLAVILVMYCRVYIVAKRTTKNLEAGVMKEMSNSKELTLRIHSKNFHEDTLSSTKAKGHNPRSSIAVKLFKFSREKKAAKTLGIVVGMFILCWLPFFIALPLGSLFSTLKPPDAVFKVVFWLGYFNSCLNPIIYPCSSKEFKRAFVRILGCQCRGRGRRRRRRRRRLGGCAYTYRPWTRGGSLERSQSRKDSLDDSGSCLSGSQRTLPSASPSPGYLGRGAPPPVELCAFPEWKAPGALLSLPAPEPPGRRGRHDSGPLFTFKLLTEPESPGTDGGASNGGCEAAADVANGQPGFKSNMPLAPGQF
In words: Radioligand binding ([3H]prazosin) at cloned human α1B. How it is done:
(§1) These cell lines were prepared by transfecting the cloned cDNA or cloned genomic DNA or constructs containing both genomic DNA and cDNA encoding the human α-adrenoceptors as follows:
The construct involved ligating the full-length containing EcoRI brainstem cDNA fragment from λ ZapII into the expression vector. Stable cell lines were obtained as described above.
(§2) Transfected cells from culture flasks were scraped into 5 ml of 5 mM Tris-HCl, 5 mM EDTA, pH 7.5, and lysed by sonication. The cell lysates were centrifuged at 1000 rpm. for 5 min at 4° C., and the supernatant was centrifuged at 30,000 ×g for 20 min at 4° C. The pellet was suspended in 50 mM Tris-HCl , 1 mM MgCl2, and 0.1% ascorbic acid at pH 7.5. […] The reaction was stopped by filtration through GF/B filters using a cell harvester.

Assay [2] deals with T1, human α1B adrenoceptor. Put plainly: Phosphoinositide accumulation in cells expressing α1B. It is filed as cell-based. As to conditions: for Emax: read-out: intrinsic activity (i.a.) α1B; for stimulation of inositol phosphate production, α1B: result in words. How it is done:
α1 -Adrenoceptor-Mediated Phosphoinositide Accumulation in Cultured Cell Lines
The agonist activity of test compounds was assayed by measuring their ability to generate phosphoinositide production in cells stably transfected with each of the three cloned human α1 -adrenoceptor subtypes. Cells were plated in 96-well plates and grown to confluence. The day before the assay the growth medium was changed to 100 μl of medium containing 1% serum and 0.5 μCi [^3 H] myo-inositol, and the plates were incubated overnight in a CO2 incubator (5% CO2 at 37° C.). Immediately before the assay, the medium was removed and replaced by 200 μl of PBS containing 10 mM LiCl, and the cells were equilibrated with the new medium for 20 min. During this interval cells were also equilibrated with the antagonist, added as 10 μl aliquot of a 20-fold concentrated solution in PBS.
The [^3 H] inositol-phosphate (IP) accumulation was started by adding 10 μl of a solution containing the agonist. To the first well 10 μl were added to measure basal accumulation, and 11 different concentrations of agonist were assayed in the following 11 wells of each plate row. All assays were performed in duplicate by repeating the same additions in two consecutive plate rows. The plates were incubated in a CO2 incubator for 1 hr. The reaction was terminated by adding 15 μl of 50% (v/v) trichloroacetic acid (TCA), followed by a 40 min incubation at 4° C.
After neutralizing TCA with 40 μl of 1 M Tris, the content of the wells was transferred to a Multiscreen HV filter plate (Millipore) containing Dowex AG1-X8 (200-400 mesh, formate form). The filter plates were prepared adding 200 μl of Dowex AG1-X8 suspension (50% v/v, water:resin) to each well. The filter plates were placed on a vacuum manifold to wash or eluted the resin bed. Each well was washed 2 times with 200 μl of water, followed by 2×200 μ of 5 mM sodium tetraborate/60 mM ammonium formate. The [3H] IPs were eluted into empty 96-well plates with 200 μl of 1.2 M ammonium formate/0.1 formic acid. The content of the wells was added to 3 mls of scintillation cocktail, and the radioactivity was determined by liquid scintillation counting.

For the next assay, the target named is T2, human α1C adrenoceptor (Homo sapiens, UniProt P35348).
T2 sequence (P35348 1-466): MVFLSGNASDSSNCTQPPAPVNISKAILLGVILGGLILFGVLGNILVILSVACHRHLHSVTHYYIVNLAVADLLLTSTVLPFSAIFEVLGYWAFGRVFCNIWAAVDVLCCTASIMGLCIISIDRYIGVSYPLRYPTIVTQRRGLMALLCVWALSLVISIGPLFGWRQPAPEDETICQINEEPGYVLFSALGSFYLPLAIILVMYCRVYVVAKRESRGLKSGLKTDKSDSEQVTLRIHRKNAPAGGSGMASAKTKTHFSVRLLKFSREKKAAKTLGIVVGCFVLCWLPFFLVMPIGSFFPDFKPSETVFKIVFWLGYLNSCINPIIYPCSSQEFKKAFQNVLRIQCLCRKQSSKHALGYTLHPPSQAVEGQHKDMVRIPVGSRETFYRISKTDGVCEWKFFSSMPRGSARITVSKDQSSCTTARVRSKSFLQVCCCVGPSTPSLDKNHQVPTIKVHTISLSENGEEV
Put plainly: biochemical. The format is binding. How it is done:
as §1
The construct involved ligating three partial overlapping fragments: a 5' 0.6 kb HincII genomic clone, a central 1.8 EcoRI hippocampal cDNA clone, and a 3' 0.6 Kb PstI genomic clone. The hippocampal cDNA fragment overlaps with the 5' and 3' genomic clones so that the HincII and PstI sites at the 5' and 3' ends of the cDNA clone, respectively, were utilized for ligation. This full-length clone was cloned into the KpnI site of the expression vector, using the 5' and 3' KpnI sites of the fragment, derived from vector (i.e., pBluescript) and 3'-untranslated sequences, respectively. Stable cell lines were obtained as described above.
as §2

Where [3] appears, read: relative to reference full agonist (e.g., norepinephrine = unity).
Setting [4] is: Table 2, antagonists, versus 3H-prazosin.

At human α1B adrenoceptor [1], `CS(=O)(=O)Nc1c(O)ccc2c1CCCC2C1=NCCN1` (racemic) [Compound A-61603, (±)-N-[5-(4,5-Dihydro-1H-imidazol-2-yl)-2-hydroxy-5,6,7,8-tetra-hydronaphthalen-1-yl]methanesulfonamide] gave a Ki of 15.8 µM. Besides, on human α1B adrenoceptor [2], the EC50 was 39.8 µM and the “stimulation of inositol phosphate production, α1B” value was “virtually inactive”. At human α1B adrenoceptor [2] (setting [3]), the Emax amounted to 10%.
On to `COc1ccc(OC)c(C(O)CN)c1` (racemic) [ST-1059, (±)-2-Amino-1-(2, 5 dimethoxyphenyl) ethanol], for which the Ki is 12.6 µM on human α1B adrenoceptor [1] and 7.94 µM on human α1C adrenoceptor. In addition, at human α1B adrenoceptor [2], the EC50 was 6.31 µM. Further, the Emax at human α1B adrenoceptor [2] stood at 10%.
Take `COc1ccc(SC)c2c1C[C@@H]1[C@@H](C2)OCCN1C` (relative stereo) [SDZ NVI-085, (±)-trans-4-Methyl-6-methoxy-9-thiomethoxy-3,4,4a, 5,10,10a-hexahydro-2H-naphtho[2,3-b][1,4]oxazine]: the Ki on human α1B adrenoceptor [1] (Table 3, agonists, read-out: pKi α1B (converted)) was 12.6 µM; at human α1C adrenoceptor (Table 3, agonists, read-out: pKi α1C (converted)), 1.26 µM. For the same compound, the EC50 at human α1B adrenoceptor [2] (agonist, phosphoinositide accumulation, read-out: pEC50 α1B (converted)) was > 100 µM. Further, the Emax at human α1B adrenoceptor [2] is 0%.
`CN[C@@H](C)[C@H](O)c1ccccc1` [(-)-ephedrine] showed a Ki on human α1B adrenoceptor [1] of 100 µM. The compound further showed a Ki at human α1C adrenoceptor of 25.1 µM. For the same compound, at human α1B adrenoceptor [2], the EC50 is 100 µM and the Emax is 20%.
Take `C[C@H](N)[C@H](O)c1ccccc1` [(-)-norephedrine]: the Ki is 50.1 µM on human α1B adrenoceptor [1] and 15.8 µM at human α1C adrenoceptor. This compound gave an EC50 at human α1B adrenoceptor [2] of 31.6 µM. On human α1B adrenoceptor [2], the Emax was determined as 0%.
With `CNC[C@H](O)c1cccc(O)c1` [(-)-phenylephrine], the Emax at human α1B adrenoceptor [2] (setting [3]) stood at 90%.
`COc1cc2c(cc1OC)CN(c1cc(N)c3cc(OC)c(OC)cc3n1)CC2` [Abanoquil, 2-(6,7-Dimethoxy-3,4-dihydro-1H-isoquinolin-2-yl)-6,7-dimethoxyquinolin-4-ylamine hemifumarate hydrate]: at human α1B adrenoceptor [1] (setting [4]), the “pKI (antagonist affinity, 3H-prazosin binding) hα1B” value stood at 10.1. Besides, the “pKI (antagonist affinity, 3H-prazosin binding) hα1C” value at human α1C adrenoceptor (setting [4]) is 10.4.
Turning to `COc1ccccc1N1CCN(CCCNc2c(C)c(=O)n(C)c(=O)n2C)CC1` [Compound 5-MU], the Ki at human α1B adrenoceptor [1] (Table 2, antagonists, versus 3H-prazosin, read-out: pKI (antagonist affinity, 3H-prazosin binding) hα1B (converted)) was 0.126 µM; at human α1C adrenoceptor (Table 2, antagonists, versus 3H-prazosin, read-out: pKI (antagonist affinity, 3H-prazosin binding) hα1C (converted)), 0.002 µM.
In the case of `CNCCc1ccc(O)c(NS(C)(=O)=O)c1` [SK&F 102652], at human α1B adrenoceptor [2], the Emax was found to be 10% and the “stimulation of inositol phosphate production, α1B” value is “virtually inactive”.
